Data reported in ChEMBL document CHEMBL1201862, “PubChem BioAssay data set” (2004).
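A five-concentration, 48-hour dose response in 96-well plates underlies each endpoint, interpolated linearly between surrounding concentrations. At the GI50, growth is halved.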 Calls of active or inactive are those of the source. No stated cut-off is given here; in the data, active = GI50 up to about 1.1 µM and inactive = higher.

Assays:
Assay in all cases: NCI tumour cell line growth inhibition, 48 h
M19-MEL = system: M19-MEL
KM12 = system: KM12
T47D = system: T47D
NCI-H23 = system: NCI-H23
OVCAR-3 = system: OVCAR-3
DU-145 = system: DU-145
SF-268 = system: SF-268
HCC 2998 = system: HCC 2998
RPMI-8226 = system: RPMI-8226
NCI-H226 = system: NCI-H226
CCRF-CEM = system: CCRF-CEM
MDA-MB-435 = system: MDA-MB-435
HCT-116 = system: HCT-116
SK-MEL-5 = system: SK-MEL-5
PC-3 = system: PC-3
XF498 = system: XF498
SNB-75 = system: SNB-75
MDA-MB-231 = system: MDA-MB-231
HOP-92 = system: HOP-92
LOX IMVI = system: LOX IMVI
BT-549 = system: BT-549
DLD-1 = system: DLD-1
SNB-19 = system: SNB-19
SK-MEL-2 = system: SK-MEL-2
SN12C = system: SN12C
HL-60 = system: HL-60
HT-29 = system: HT-29
U-251 = system: U-251
KM-20L2 = system: KM-20L2
SK-OV-3 = system: SK-OV-3
HCT-15 = system: HCT-15
DMS-273 = system: DMS-273
OVCAR-8 = system: OVCAR-8
SF-295 = system: SF-295
MDA-N = system: MDA-N
Malme-3M = system: Malme-3M
M14 = system: M14
SNB-78 = system: SNB-78
IGROV-1 = system: IGROV-1
NCI-H460 = system: NCI-H460
RXF 393 = system: RXF 393
ACHN = system: ACHN
SF-539 = system: SF-539
UO-31 = system: UO-31
DMS-114 = system: DMS-114
LXFL 529 = system: LXFL 529
TK-10 = system: TK-10
UACC-257 = system: UACC-257
786-0 = system: 786-0
A498 = system: A498
SR = system: SR
NCI-H522 = system: NCI-H522
HOP-62 = system: HOP-62
SW-620 = system: SW-620
OVCAR-5 = system: OVCAR-5
SK-MEL-28 = system: SK-MEL-28
K562 = system: K562
MOLT-4 = system: MOLT-4
Hs-578T = system: Hs-578T
CAKI-1 = system: CAKI-1
A549 = system: A549
UACC-62 = system: UACC-62
EKVX = system: EKVX
COLO 205 = system: COLO 205
OVCAR-4 = system: OVCAR-4
HOP-18 = system: HOP-18
NCI/ADR-RES = system: NCI/ADR-RES
MCF7 = system: MCF7

Measured: GI50

COCC(=O)[C@]1(O)Cc2c(O)c3c(c(O)c2[C@@H](OC2CC(N)C(O)C(C)O2)C1)C(=O)c1c(OC)cccc1C3=O (stereo partly drawn)
active: M19-MEL 67.6 nM | KM12 56.4 nM | T47D 106 nM | NCI-H23 53.6 nM | OVCAR-3 115 nM | DU-145 99.1 nM | SF-268 35.1 nM | HCC 2998 140 nM | RPMI-8226 80 nM | NCI-H226 40.1 nM | CCRF-CEM 15.3 nM | MDA-MB-435 188 nM | HCT-116 49.3 nM | SK-MEL-5 72.8 nM | PC-3 79.1 nM | XF498 57.3 nM | SNB-75 34.3 nM | MDA-MB-231 296 nM | HOP-92 130 nM | LOX IMVI 19.1 nM | BT-549 161 nM | DLD-1 53.2 nM | SNB-19 88.9 nM | SK-MEL-2 121 nM | SN12C 28.5 nM | HL-60 18.8 nM | HT-29 19.2 nM | U-251 83.6 nM | KM-20L2 111 nM | SK-OV-3 254 nM | DMS-273 39.1 nM | OVCAR-8 < 17.2 nM | SF-295 29.6 nM | MDA-N 76.7 nM | Malme-3M 105 nM | M14 92.7 nM | SNB-78 278 nM | IGROV-1 136 nM | NCI-H460 23.5 nM | RXF 393 83.4 nM | ACHN 70.3 nM | SF-539 43 nM | UO-31 88.3 nM | DMS-114 71.8 nM | LXFL 529 71.3 nM | TK-10 431 nM | UACC-257 299 nM | 786-0 37.3 nM | A498 104 nM | SR < 13.8 nM | NCI-H522 25.5 nM | HOP-62 110 nM | SW-620 20.9 nM | OVCAR-5 220 nM | SK-MEL-28 93.5 nM | K562 12.4 nM | MOLT-4 14 nM | Hs-578T < 10 nM | CAKI-1 62.8 nM | A549 219 nM | UACC-62 54.5 nM | EKVX 455 nM | COLO 205 168 nM | OVCAR-4 82.6 nM
137 nM: HCT-15

CCCCCOc1ccc(/C=N\c2ccc(-c3ccc(/N=C\c4ccc(OCCCCC)cc4)c(OC)c3)cc2OC)cc1
> 100000 nM: HCT-15
inactive: M19-MEL > 100000 nM | KM12 > 100000 nM | NCI-H23 > 100000 nM | HOP-18 24300 nM | OVCAR-3 > 66200 nM | SF-268 > 100000 nM | HCC 2998 > 100000 nM | RPMI-8226 > 100000 nM | NCI-H226 > 100000 nM | CCRF-CEM > 100000 nM | HCT-116 > 100000 nM | SK-MEL-5 > 100000 nM | XF498 > 100000 nM | SNB-75 46900 nM | HOP-92 > 100000 nM | LOX IMVI > 100000 nM | DLD-1 > 100000 nM | SNB-19 > 100000 nM | SK-MEL-2 > 100000 nM | SN12C > 100000 nM | HL-60 > 100000 nM | HT-29 > 100000 nM | U-251 > 100000 nM | KM-20L2 > 100000 nM | SK-OV-3 > 100000 nM | DMS-273 > 100000 nM | OVCAR-8 > 100000 nM | SF-295 > 100000 nM | Malme-3M > 100000 nM | SNB-78 > 84900 nM | IGROV-1 > 100000 nM | NCI-H460 > 100000 nM | RXF 393 > 100000 nM | NCI/ADR-RES > 100000 nM | SF-539 > 100000 nM | UO-31 > 80200 nM | DMS-114 > 100000 nM | MCF7 > 100000 nM | UACC-257 > 100000 nM | A498 > 100000 nM | NCI-H522 > 100000 nM | HOP-62 > 100000 nM | SW-620 > 100000 nM | OVCAR-5 > 100000 nM | SK-MEL-28 > 100000 nM | K562 > 31600 nM | MOLT-4 > 100000 nM | A549 > 100000 nM | UACC-62 > 100000 nM | EKVX > 100000 nM | COLO 205 > 100000 nM | OVCAR-4 > 31600 nM
